# Reference: US8404695B2, “Pyrimidinyl pyridone inhibitors of JNK” (Roche Palo Alto LLC, priority 2008, dated 2013)
# Key:
# [1] = target: Human JNK2α2 (Homo sapiens, UniProt P45984); test: JNK assay in vitro, phosphorylation of GST-ATF2 (19-96) with [γ-33P] ATP, JNK2; format: biochemical; details: 1 nM enzyme, 1 μM ATF2, 8 μM ATP, 30° C. for 30 min
# Protocol: (§1) JNK activity was measured by phosphorylation of GST-ATF2 (19-96) with [γ-^33P] ATP. The enzyme reaction was conducted at Km concentrations of ATP and the substrate at final volume of 40 μl in buffer containing 25 mM HEPES, pH 7.5, 2 mM dithiothreitol, 150 mM NaCl, 20 mM MgCl2, 0.001% Tween® 20, 0.1% BSA and 10% DMSO. Human JNK2α2 assay contains 1 nM enzyme, 1 μM ATF2, 8 μM ATP with 1 uCi [γ-^33P] ATP. Human JNK1α1 assay contains 2 nM enzyme, 1 μM ATF2, 6 μM ATP with 1 μCi [γ-^33P] ATP. Human JNK3 (Upstate Biotech #14-501M) assay contains 2 nM enzyme, 1 μM ATF2, 4 μM ATP with 1 μCi [γ-^33P] ATP. The enzyme assay was carried out in the presence or absence of several compound concentrations. JNK and compound were pre-incubated for 10 min., followed by initiation of the enzymatic reaction by adding ATP and the substrate. The reaction mixture was incubated at 30° C. for 30 min. At the end of incubation, the reaction was terminated by transferring 25 μl of the reaction mixture to 150 μl of 10% glutathione Sepharose® slurry (Amersham # 27-4574-01) containing 135 mM EDTA. The reaction product was captured on the affinity resin, and washed on a filtration plate (Millipore, MABVNOB50) with phosphate buffered saline for six times to remove free radionucleotide. The incorporation of ^33P into ATF2 was quantified on a microplate scintillation counter (Packard Topcount). Compound inhibition potency on JNK was measured by IC50 value generated from ten concentration inhibition curves fitted into the 3-parameter model: % inhibition=Maximum/(1+(IC50/[Inhibitor])^slope). Data were analyzed on Microsoft Excel for parameter estimation.
# [2] = target: Human JNK1α1 (Homo sapiens, UniProt P45983); test: JNK assay in vitro, phosphorylation of GST-ATF2 (19-96) with [γ-33P] ATP, JNK1; format: biochemical; details: 2 nM enzyme, 1 μM ATF2, 6 μM ATP, 30° C. for 30 min
# Sequence of Human JNK1α1 (P45983 1-384 isoform P45983-2): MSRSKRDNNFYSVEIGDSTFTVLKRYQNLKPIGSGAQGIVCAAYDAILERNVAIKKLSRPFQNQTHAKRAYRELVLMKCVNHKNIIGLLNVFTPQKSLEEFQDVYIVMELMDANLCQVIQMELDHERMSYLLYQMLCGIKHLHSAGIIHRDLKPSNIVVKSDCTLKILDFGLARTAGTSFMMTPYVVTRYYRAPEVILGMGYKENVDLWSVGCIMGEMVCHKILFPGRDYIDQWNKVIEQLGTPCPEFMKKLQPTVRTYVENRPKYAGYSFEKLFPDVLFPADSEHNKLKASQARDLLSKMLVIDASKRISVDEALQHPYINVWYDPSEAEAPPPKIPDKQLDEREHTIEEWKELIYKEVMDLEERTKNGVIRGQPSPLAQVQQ
# Protocol: as §1
# Sequence of Human JNK2α2 (P45984 whole entry): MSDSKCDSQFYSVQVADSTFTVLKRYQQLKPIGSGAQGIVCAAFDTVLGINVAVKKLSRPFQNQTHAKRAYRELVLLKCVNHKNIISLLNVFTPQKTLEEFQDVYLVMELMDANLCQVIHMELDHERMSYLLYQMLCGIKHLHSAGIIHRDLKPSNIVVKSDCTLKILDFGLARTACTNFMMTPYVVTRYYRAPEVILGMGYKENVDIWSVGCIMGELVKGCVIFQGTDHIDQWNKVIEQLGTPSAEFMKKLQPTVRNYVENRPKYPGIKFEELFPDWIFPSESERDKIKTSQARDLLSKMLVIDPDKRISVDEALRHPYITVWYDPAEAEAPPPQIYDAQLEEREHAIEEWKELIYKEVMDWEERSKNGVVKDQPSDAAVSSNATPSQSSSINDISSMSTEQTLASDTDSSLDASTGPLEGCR
SMILES,IC50 [1] [nM],IC50 [2] [nM]
"O=c1ccc2cnc(NC3CCCCC3)nc2n1C1CCCC1 [Compound 3, 2-Cyclohexylamino-8-cyclopentyl-8H-pyrido[2,3-d]pyrimidin-7-one]",136,108
"Cc1cc2cnc(N[C@H]3CC[C@H](O)CC3)nc2n(CCCO)c1=O [Compound 7, 2-(4-Hydroxy-cyclohexylamino)-8-(3-hydroxy-propyl)-6-methyl-8H-pyrido[2,3-d]pyrimidin-7-one]",409,291
Cc1cc2cnc(NC3CCCCC3)nc2n(CCCO)c1=O [Compound 11],713,503

# The remaining lines, values ahead:
IC50 [1] [nM],IC50 [2] [nM],SMILES
154,70.1,"CC(CCO)n1c(=O)ccc2cnc(NC3CCCCC3)nc21 (stereo not drawn) [Compound 1, 2-Cyclohexylamino-8-(3-hydroxy-1-methyl-propyl)-8H-pyrido[2,3-d]pyrimidin-7-one]"
778,282,"CS(=O)(=O)N[C@H]1CC[C@H](Nc2ncc3ccc(=O)n(CCCO)c3n2)CC1 [Compound 5, N-{4-[8-(3-Hydroxy-propyl)-7-oxo-7,8-dihydro-pyrido[2,3-d]pyrimidin-2-ylamino]-cyclohexyl}-methanesulfonamide]"
625,464,"CS(=O)(=O)NCCCn1c(=O)ccc2cnc(NC3CCCCC3)nc21 [Compound 9, N-[3-(2-Cyclohexylamino-7-oxo-7H-pyrido[2,3-d]pyrimidin-8-yl)-propyl]-methanesulfonamide]"
